In DBAASP:
Values after ≈ are worked out from the molar mass of the structure shown. Values belong to the molecule of their own block, whether it stands above or below them.

Legend:
Assay in all cases: ≥ marks a high value that may be exact or a test limit, other limits are often not marked, values filed in µg/mL are converted to µM
[1] = system: Staphylococcus aureus ATCC 25923
[2] = system: Pseudomonas aeruginosa ATCC 9027
[3] = system: Escherichia coli ATCC 35218
[4] = system: Bacillus cereus ATCC 11778
[5] = system: Bacillus subtilis DSM 347
[6] = system: Franconibacter helveticus DSM 18396
[7] = system: Kocuria rhizophila DSM 348
[8] = system: Escherichia coli DH5alpha
[9] = system: Xanthomonas vesicatoria DSM 50861
Botrytis cinerea = system: Botrytis cinerea
[10] = system: Pectobacterium carotovorum subsp. carotovorum DSM 30168
[11] = system: Clavibacter michiganensis subsp. michiganensis DSM 46294
[12] = system: Pseudomonas syringae pv. tomato DC3000
Alternaria alternata = system: Alternaria alternata
[13] = system: Pseudomonas syringae pv. syringae DSM 10604
[14] = system: Pseudomonas corrugata DSM 7228
Cladosporium herbarum = system: Cladosporium herbarum
[15] = system: Xanthomonas axonopodis pv. glycines ISBF 327
[16] = system: Escherichia coli ATCC 25922
Bacillus cereus AS1.126 = system: Bacillus cereus AS1.126
[17] = system: Pseudomonas aeruginosa CGMCC 1.860
Escherichia coli AS1.349 = system: Escherichia coli AS1.349
[18] = system: Staphylococcus aureus AS1.72
[19] = system: Enterococcus faecalis CGMCC 1.595
[20] = system: Lactococcus lactis AS1.1690
[21] = system: Enterococcus faecium CGMCC 1.2334

SMILES: CC(C)C[C@H](NC(=O)[C@@H](NC(=O)[C@H](CCCCN)NC(=O)[C@@H](N)CCCCN)C(C)C)C(=O)N[C@@H](CCCCN)C(=O)N[C@@H](C)C(=O)N[C@@H](C)C(=O)N[C@@H](C)C(N)=O [KKVLKAAA]
MIC [1]: > 50 µM
MIC [2]: > 50 µM
MIC [3]: ≥ 50 µM
MIC [4]: ≥ 50 µM

SMILES: CC(C)[C@H](NC(=O)[C@H](C)NC(=O)[C@H](CCCN=C(N)N)NC(=O)[C@H](CCCCN)NC(=O)[C@H](C)NC(=O)[C@H](Cc1ccccc1)NC(=O)[C@H](CCCN=C(N)N)NC(=O)[C@H](C)NC(=O)[C@H](Cc1ccccc1)NC(=O)[C@H](CCCN=C(N)N)NC(=O)[C@H](CCCCN)NC(=O)[C@@H](N)CCCN=C(N)N)C(N)=O [RKRFARFAKRAV]
MIC [9]: 26.6 µM (≈ 40 µg/mL)
MIC (Botrytis cinerea): ≥ 66.4 µM
MIC [10]: 26.6 µM (≈ 40 µg/mL)
MIC [11]: 13.3 µM (≈ 20 µg/mL)
MIC [12]: 3.32 µM (≈ 5 µg/mL)
MIC (Alternaria alternata): ≥ 66.4 µM
MIC [13]: 26.6 µM (≈ 40 µg/mL)
MIC [14]: 26.6 µM (≈ 40 µg/mL)
MIC (Cladosporium herbarum): 26.6 µM (≈ 40 µg/mL)

SMILES: NC(N)=NCCC[C@H](NC(=O)[C@H](Cc1cnc[nH]1)NC(=O)[C@H](Cc1c[nH]c2ccccc12)NC(=O)[C@H](Cc1ccccc1)NC(=O)[C@H](CCCN=C(N)N)NC(=O)[C@H](CCCN=C(N)N)NC(=O)[C@H](Cc1c[nH]c2ccccc12)NC(=O)[C@H](Cc1cnc[nH]1)NC(=O)[C@@H](N)CCCN=C(N)N)C(=O)O [RHWRRFWHR]
MIC (Bacillus cereus AS1.126): 6.25 µM (≈ 8.98 µg/mL)
MIC [17]: 3.13 µM (≈ 4.5 µg/mL)
MIC (Escherichia coli AS1.349): 6.25 µM (≈ 8.98 µg/mL)
MIC [18]: 12.5 µM (≈ 18 µg/mL)
MIC [19]: 3.13 µM (≈ 4.5 µg/mL)
MIC [20]: 6.25 µM (≈ 8.98 µg/mL)
MIC [21]: 6.25 µM (≈ 8.98 µg/mL)

More lines, now with the values ahead:

MIC [5]: 1 µM (≈ 2.48 µg/mL)
MIC [6]: 4 µM (≈ 9.92 µg/mL)
MIC [7]: 8 µM (≈ 19.8 µg/mL)
MIC [8]: 16 µM (≈ 39.7 µg/mL)
SMILES: CC[C@H](C)[C@H](NC(=O)CN)C(=O)NCC(=O)N[C@@H](CCCCN)C(=O)N[C@@H](Cc1ccccc1)C(=O)N[C@@H](CC(C)C)C(=O)N[C@@H](Cc1cnc[nH]1)C(=O)N[C@@H](CO)C(=O)N[C@@H](C)C(=O)N[C@@H](CCCCN)C(=O)N[C@@H](CCCCN)C(=O)N[C@@H](Cc1ccccc1)C(=O)N[C@@H](C)C(=O)N[C@@H](CCCCN)C(=O)N[C@@H](C)C(=O)N[C@@H](Cc1ccccc1)C(=O)N[C@H](C(=O)NCC(=O)N[C@@H](CCC(=O)O)C(=O)N[C@H](C(=O)N[C@@H](CCSC)C(=O)N[C@@H](CC(N)=O)C(=O)N[C@@H](CO)C(=O)O)[C@@H](C)CC)C(C)C [GIGKFLHSAKKFAKAFVGEIMNS]

MIC [15]: 2 µM (≈ 4.7 µg/mL)
MIC [16]: 14 µM (≈ 32.9 µg/mL)
SMILES: CC(C)C[C@H](NC(=O)[C@H](CCC(N)=O)NC(=O)[C@H](CCCN=C(N)N)NC(=O)[C@H](CC(C)C)NC(=O)[C@H](CC(C)C)NC(=O)[C@@H](NC(=O)[C@H](CC(C)C)NC(=O)[C@@H](NC(=O)[C@H](CCCN=C(N)N)NC(=O)[C@H](CCCN=C(N)N)NC(=O)[C@H](CCCCN)NC(=O)[C@H](C)NC(=O)[C@@H](N)CC(C)C)C(C)C)[C@@H](C)O)C(=O)N[C@@H](CCCN=C(N)N)C(=O)N[C@@H](CCCN=C(N)N)C(=O)N[C@H](C(=O)N[C@@H](CO)C(=O)N1CCC[C@H]1C(=O)N[C@@H](CO)C(=O)N[C@@H](CO)C(N)=O)C(C)C [LAKRRVLTLLRQLRRVSPSS]

MIC [5]: ≥ 32 µM
MIC [6]: ≥ 128 µM
MIC [7]: ≥ 256 µM
MIC [8]: ≥ 128 µM
SMILES: CC[C@H](C)[C@H](NC(=O)CN)C(=O)NCC(=O)N[C@@H](CCCCN)C(=O)N[C@@H](C)C(=O)N[C@@H](CC(C)C)C(=O)N[C@@H](Cc1cnc[nH]1)C(=O)N[C@@H](CO)C(=O)N[C@@H](C)C(=O)N[C@@H](CCCCN)C(=O)N[C@@H](CCCCN)C(=O)N[C@@H](Cc1ccccc1)C(=O)NCC(=O)N[C@@H](CCCCN)C(=O)N[C@@H](C)C(=O)N[C@@H](Cc1ccccc1)C(=O)N[C@H](C(=O)NCC(=O)N[C@@H](CCC(=O)O)C(=O)N[C@H](C(=O)N[C@@H](CCSC)C(=O)N[C@@H](CC(N)=O)C(=O)N[C@@H](CO)C(=O)O)[C@@H](C)CC)C(C)C [GIGKALHSAKKFGKAFVGEIMNS]

MIC [15]: ≥ 42 µM
SMILES: CC[C@H](C)[C@H](NC(=O)[C@H](C)NC(=O)[C@@H]1CCCN1C(=O)[C@H](CCCN=C(N)N)NC(=O)[C@@H](N)CC(C)C)C(=O)N[C@@H](CC(C)C)C(=O)N[C@H](C(=O)N[C@@H](CCCN=C(N)N)C(=O)N[C@H](C(=O)N[C@@H](CCCCN)C(=O)NCC(=O)N[C@@H](CCCCN)C(=O)NCC(=O)N[C@@H](CC(C)C)C(N)=O)C(C)C)C(C)C [LRPAILVRVKGKGL]
